{
  "source": "paper PMC2992812",
  "about": "(The Biochemical journal, 2010)",
  "key": {"[1]": {"target": "β2AR (Homo sapiens, UniProt P07550)", "sequence (P07550 whole entry)": "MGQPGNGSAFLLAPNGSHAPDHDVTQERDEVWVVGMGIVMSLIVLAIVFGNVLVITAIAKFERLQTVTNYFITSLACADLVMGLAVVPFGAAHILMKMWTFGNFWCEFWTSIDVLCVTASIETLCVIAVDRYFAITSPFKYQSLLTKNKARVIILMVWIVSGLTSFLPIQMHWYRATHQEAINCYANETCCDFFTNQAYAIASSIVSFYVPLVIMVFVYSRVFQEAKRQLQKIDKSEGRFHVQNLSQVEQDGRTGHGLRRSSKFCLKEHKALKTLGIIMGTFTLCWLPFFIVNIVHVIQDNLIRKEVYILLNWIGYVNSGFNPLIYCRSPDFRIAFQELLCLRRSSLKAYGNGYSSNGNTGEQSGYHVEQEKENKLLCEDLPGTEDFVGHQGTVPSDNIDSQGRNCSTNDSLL", "experiment": "Fixed-cell ELISA, PKA site", "type": "cell-based", "details": "10 μM H89 pre-incubated 30 min and during 5 min with 1 μM isoprenaline"}, "[2]": {"target": "T1, TRHR–β2AR chimaera (Rattus norvegicus, UniProt Q01717)", "T1 sequence (Q01717 1-337)": "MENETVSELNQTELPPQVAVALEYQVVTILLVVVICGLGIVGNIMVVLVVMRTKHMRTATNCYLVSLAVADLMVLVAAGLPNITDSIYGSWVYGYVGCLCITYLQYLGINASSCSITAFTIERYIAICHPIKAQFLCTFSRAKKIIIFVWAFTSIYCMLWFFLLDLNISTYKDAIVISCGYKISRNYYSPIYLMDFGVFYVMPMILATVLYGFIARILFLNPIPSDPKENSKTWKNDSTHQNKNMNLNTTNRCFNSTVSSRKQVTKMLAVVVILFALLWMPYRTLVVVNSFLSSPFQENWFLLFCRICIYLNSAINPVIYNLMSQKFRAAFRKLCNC", "experiment": "[methyl-3H]TRH binding to live cells", "design": "species or system rat TRHR / human β2AR", "details": "HEK-293, 90 min at 37°C, Scatchard analysis"}, "[3]": {"tested_on": "β2AR–TRHR chimaera", "experiment": "Receptor internalization assay", "type": "cell-based, human β2AR / rat TRHR", "details": "stable HEK-293"}, "[4]": {"target": "T2, TRHR (Rattus norvegicus, UniProt Q01717)", "T2 sequence (Q01717 1-412)": "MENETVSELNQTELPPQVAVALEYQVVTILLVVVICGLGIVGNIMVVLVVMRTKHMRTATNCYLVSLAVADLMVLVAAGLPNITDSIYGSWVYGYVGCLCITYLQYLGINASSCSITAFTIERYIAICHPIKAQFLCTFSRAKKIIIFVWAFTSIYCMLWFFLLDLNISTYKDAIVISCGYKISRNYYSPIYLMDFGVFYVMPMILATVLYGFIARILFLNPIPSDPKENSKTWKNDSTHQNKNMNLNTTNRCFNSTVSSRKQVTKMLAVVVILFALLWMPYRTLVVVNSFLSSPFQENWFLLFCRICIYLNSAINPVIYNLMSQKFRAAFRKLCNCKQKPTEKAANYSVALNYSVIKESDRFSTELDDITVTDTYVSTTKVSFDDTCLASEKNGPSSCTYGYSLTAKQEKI", "experiment": "Receptor internalization assay", "type": "cell-based", "details": "100 nM TRH, after 1 h, HEK-293"}, "[5]": {"target": "T2, TRHR", "experiment": "Fixed-cell ELISA, GRK site phosphorylation/dephosphorylation of TRHR tail", "type": "cell-based", "details": "EC50 (GRK site phosphorylation)"}, "[6]": {"target": "T1, TRHR–β2AR chimaera", "experiment": "Receptor internalization assay", "type": "cell-based, rat TRHR / human β2AR", "details": "100 nM TRH, after 1 h, HEK-293"}},
  "data": [
    {"compound": "O=S(=O)(NCCNC/C=C/c1ccc(Br)cc1)c1cccc2cnccc12", "note": "[H89]", "values": [
      {"measurement": "Inhibition of isoprenaline-stimulated PKA site phosphorylation", "setting": "[1]", "value": 80, "unit": "%"}
    ]},
    {"compound": "[methyl-3H]TRH", "values": [
      {"measurement": "Affinity for [methyl-3H]TRH compared with wild-type TRHR", "setting": "[2]", "value": "reduced affinity"}
    ]},
    {"compound": "CC(C)NCC(O)c1ccc(O)c(O)c1", "note": "(stereo not drawn) [isoprenaline]", "values": [
      {"measurement": "More internalization at 1 μM than at 1 nM isoprenaline", "setting": "[3]", "value": 2, "unit": "fold"}
    ]},
    {"compound": "NC(=O)[C@@H]1CCCN1C(=O)[C@H](Cc1cnc[nH]1)NC(=O)[C@@H]1CCC(=O)N1", "note": "[TRH, thyrotropin-releasing hormone]", "values": [
      {"measurement": "Receptor internalized", "setting": "[4]", "value": 60, "unit": "%"},
      {"measurement": "EC50", "setting": "[5]", "value": 8, "unit": "nM"},
      {"measurement": "Receptor internalized", "setting": "[6]", "value": 40, "unit": "%"}
    ]}
  ]
}
